Source: US20220331290A1, “PHARMACEUTICAL COMPOSITION FOR PREVENTING OR TREATING SARCOPENIA, CONTAINING UNNATURAL AMINO ACID” (MYO-TEC-SCI, priority 2019, published 2022)

How the values were obtained:
myostatin promoter = test: Myostatin promoter activity, dual luciferase assay in C2C12 cells transfected with pGL4.15-MSTN; type: cell-based, mouse; settings: for myostatin promoter activity reduced by: 1 mM, C2C12 cells, medium without L-leucine, after one day; for promoter activity of myostatin: C2C12, medium without L-leucine
Experimental: After seeding 1×10^5 cells of mouse skeletal muscle cells C2C12 (ATCC, US) in a 12-well culture plate, on the next day, pGL4.15 empty vector and pGL4.15-MSTN vector containing myostatin promoter were transfected using Lipofectamine 2000 for 4 hours. After 4 hours, the complete medium (0.8 mM L-leucine) and the medium without L-leucine were treated with D-leucine or DL-leucine at concentrations of 0.001 mM, 0.01 mM, 0.1 mM, and 1 mM, respectively. After one day, a dual luciferase assay kit (Promega Inc.) was used to measure the promoter activity of myostatin.
In the same manner as the experiment to examine the inhibitory effect of a myostatin promoter activity by D-leucine or DL-leucine, D-alanine was treated at concentrations of 0.01 mM, 0.1 mM, 1 mM, and 10 mM in a medium without L-leucine, and a dual luciferase assay kit (Promega Inc.) was used to measure the promoter activity of myostatin.
In the same manner as in the experiment to examine the inhibitory effect of a myostatin promoter activity by D-leucine or DL-leucine, and D-alanine, D-proline was treated at concentrations of 0.001 mM, 0.01 mM, 0.1 mM, and 1 mM in a medium without L-leucine, and a dual luciferase assay kit (Promega Inc.) was used to measure the promoter activity of myostatin.
In the same manner as the myostatin promoter activity experimental method performed in Example 1 above, D-phenylalanine (0.001-0.1 mM), D-serine (0.001-0.1 mM), D-tyrosine (0.0001-0.01 mM), D-asparagine monohydrate (0.001-0.1 mM), D-aspartic acid (0.0001-0.01 mM), D-methionine (0.001-0.1 mM), D-cysteine hydrochloride monohydrate (0.001-0.1 mM), D-glutamic acid (0.0001-0.01 mM), D-arginine (0.001-0.1 mM), and D-tryptophan (0.001-0.1 mM) were treated, respectively. The myostatin mRNA expression level was identified using qRT-PCR, and the myostatin mRNA expression value was corrected using the expression value of beta-actin.

myostatin mRNA = test: Myostatin mRNA expression by qRT-PCR in C2C12 cells, corrected with beta-actin; type: cell-based, mouse; settings: C2C12, medium without L-leucine
Experimental: After seeding mouse skeletal muscle cells C2C12 (ATCC, US) 3×10^5 cells in a 6-well culture plate, on the next day, D-leucine was treated at concentrations of 0.01 mM, 0.1 mM, and 1 mM in a complete medium (0.8 mM L-leucine) and a medium without L-leucine. […]

Structure (SMILES): CC(C)CC(N)C(=O)O (racemic) [DL-leucine]
- myostatin promoter activity reduced by (myostatin promoter): 41%

Structure (SMILES): C[C@@H](N)C(=O)O [D-alanine]
- mRNA expression level of myostatin (myostatin mRNA; D-alanine at 0.001 mM or more (0.001-1 mM tested), 12 hours (FIG. 7)): decreased
- promoter activity of myostatin (myostatin promoter; D-alanine at 0.01 mM or more (0.01-10 mM tested), 12 hours (FIG. 6)): decreased

Structure (SMILES): CC(C)C[C@@H](N)C(=O)O [D-leucine]
- expression of myostatin mRNA (myostatin mRNA; D-leucine 0.01, 0.1 and 1 mM, after one day): decreased in a dose-dependent manner
- myostatin promoter activity reduced by (myostatin promoter): 54%

Structure (SMILES): O=C(O)[C@H]1CCCN1 [D-proline]
- mRNA expression level of myostatin (myostatin mRNA; D-proline at 0.1 mM or more (0.1 and 1 mM tested), 24 hours (FIG. 9)): decreased
- promoter activity of myostatin (myostatin promoter; D-proline at 0.001 mM or more (0.001-1 mM tested), 24 hours (FIG. 8)): decreased
